According to patent EP0270317A2, “Pharmaceutical compositions for the treatment of diseases caused by viruses” (Kabushiki Kaisha Ueno Seiyaku Oyo Kenkyujo, priority 1986, dated 1988):

Test system: HTLV-III
Assay: inhibition of viral infection, MT-4 cells infected with HTLV-III, time course (Example 18)
Type: cell-based
Details: sole use of 10 nM AZT or 5 µg/ml dextran sulfate; day 9
Method: AIDS virus HTLV-III was challenged to established human T-lymphocyte culture cells MT-4 and the cell suspension and virus particles were incubated at 37°C for 1 hour. The cells were then washed with phosphate buffered saline once and cultured with or without various doses of the test substances in RPMI-1640 medium at 37°C under 5 % CO₂ in an incubator.
MT-4 cells infected with HTLV-III were destructed as the virus proliferated, resulting in decrease of viable cells. Prior to the cytolysis by viral cytopathic effect, the cells infected with HTLV-III which were detectable by indirct immuno fluorescence method appeared. On day 12, number of the living cells was counted to know the extent of infection, and rate of the infected cells was determined by indirect immuno-fluorescence method using an antibody having specificity to the virus specific antigen. As the test substances, 3ʹ-azido-3ʹ-deoxythymidine (AZT) and dextran sulfate(M.W. 7000 - 8000, S-content 17 - 20%) (DS) were used.
In the same procedure as in Expample 7, the MT-4 cells infected with HTLV-III were cultured in medium and the changes in the number of viable cells and the rate of the infected cells were recorded in time course. […]

## Cc1cn([C@H]2C[C@H](N=[N+]=[N-])[C@@H](CO)O2)c(=O)[nH]c1=O [AZT, 3ʹ-azido-3ʹ-deoxythymidine]
  infection: 100%
